Measurements published in patent US11696928B2, “Compounds and use thereof in the expansion of stem cells and/or progenitor cells” (UNIVERSITE DE MONTREAL, priority 2017, dated 2023).

Tests used:
[1] = target: T1, AhR (Homo sapiens, UniProt P35869); assay: Inhibition of AhR-mediated gene transcription (HEK-XRE 11.1 luciferase reporter, MeBIO induction); type: cell-based; settings: HEK-XRE 11.1 cells, MeBIO 0.1 nM, luminescence after 24 hours
T1 construct: One of the resultant clones was named HEK-XRE 11.1, and used in the reporter gene assays; endogenous in cells; host or cells: HEK-XRE 11.1 (HEK cells stably carrying the AhR-responsive luciferase reporter X4-4.27 and phRL-CMV)
T1 sequence (P35869 11-848): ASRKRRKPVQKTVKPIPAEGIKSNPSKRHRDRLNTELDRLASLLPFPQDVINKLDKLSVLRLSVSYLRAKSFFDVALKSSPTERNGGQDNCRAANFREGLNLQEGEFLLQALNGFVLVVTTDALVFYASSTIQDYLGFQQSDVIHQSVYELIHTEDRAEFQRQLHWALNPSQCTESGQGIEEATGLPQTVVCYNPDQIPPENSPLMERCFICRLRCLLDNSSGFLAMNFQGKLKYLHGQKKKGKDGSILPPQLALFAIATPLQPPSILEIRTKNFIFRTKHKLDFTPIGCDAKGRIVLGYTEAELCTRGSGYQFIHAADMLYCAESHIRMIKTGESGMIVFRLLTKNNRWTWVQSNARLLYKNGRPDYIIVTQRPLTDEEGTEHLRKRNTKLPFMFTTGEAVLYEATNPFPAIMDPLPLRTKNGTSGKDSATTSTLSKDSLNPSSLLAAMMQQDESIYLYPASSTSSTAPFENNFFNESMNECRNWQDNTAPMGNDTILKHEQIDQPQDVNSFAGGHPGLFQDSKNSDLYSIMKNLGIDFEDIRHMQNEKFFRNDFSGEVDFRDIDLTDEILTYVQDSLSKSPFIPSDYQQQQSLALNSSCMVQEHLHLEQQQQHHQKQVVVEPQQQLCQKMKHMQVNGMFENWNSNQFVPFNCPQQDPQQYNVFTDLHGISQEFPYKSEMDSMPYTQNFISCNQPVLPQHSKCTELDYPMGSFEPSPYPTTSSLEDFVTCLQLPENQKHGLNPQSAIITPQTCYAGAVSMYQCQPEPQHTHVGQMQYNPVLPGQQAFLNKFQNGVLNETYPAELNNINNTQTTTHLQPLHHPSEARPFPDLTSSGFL
Procedure: HEK cells line was transfected with an AhR-responsive firefly luciferase reporter gene X4-4.27 and the stable transfectants generated were again transfected with phRL-CMV (a Renilla luciferase expression vector; Promega) along with pBAsi-hU6 Pur DNA (a plasmid carrying the puromycin-resistant gene; TaKaRa, Shiga, Japan), and maintained in the presence of both hygromycin B and puromycin (2 mg/mL). One of the resultant clones was named HEK-XRE 11.1, and used in the reporter gene assays.
HEK-XRE 11.1 cells were plated in 384-well plates at a density of 25,000 cells in 50 uL volume per well. The induction of ARh pathway was done by addition of MeBIO at 0.1 nM concentration. ARh antagonist compounds were then added to seeded cells in serial dilutions (8 dilutions, 1:[…] down to 5 nM) in duplicate wells. Renilla expression was not used as internal control. On each plate, Compound 1001 and SR1 were added as dose control (8 dilutions, 1:3, 5 mM down to 2.5 nM for SR1 and 2 mM down to 1 nM for compound 1001). Luminescence activity was evaluated after 24 hours culture using Lumi-384-CellTiterGlo-Corning protocol. Dose-response curves were generated using nonlinear regression in Excel.

[2] = system: Human CD34+ cord blood (CB) cells; assay: CD34+ activity assessment (7-day expansion of pre-expanded CD34+ cells, flow cytometry); type: cell-based; settings: concentration at which compound/vehicle ratio of CD34+ cell number is >= 1.5; 7 days, with 35 nM UM0128171; Table 1
Procedure: Human CD34+ cord blood (CB) cells were isolated from fresh units using RosetteSep™ 0034 pre-enrichment cocktail followed by CD34 positive selection using EasySep Kit™ (StemCell Technologies). The cells were then pre-expanded in bulk, by culturing at 37° C. for 6 days in HSC expansion media consisting of StemSpan ACF (StemCell Technologies) supplemented with 100 ng/mL Stem Cell Factor (SCF, Shenandoah), 100 ng/mL FMS-like Tyrosine Kinase 3 Ligand (FLT3L, Shenandoah), 50 ng/mL Thrombopoietin (TPO, Shenandoah), 2 mM GlutaMAX™ (Invitrogen), 10 μg/mL low density lipoproteins (LDL, StemCell Technologies), 10 μg/mL Ciprofloxacin and 35 nM UM0128171. […] Following the pre-expansion, cells were harvested, aliquoted and frozen until use.
For each activity assessment, CD34+ pre-expanded cells (approximately 2000 per well in a 384-well plate) were cultured in HSC expansion media, in the presence of 35 nM UM0128171. Compounds were serially diluted (1/2) in DMSO (10 dilutions per compound) and added to the cells in order to achieve a 1/1000 final dilution. StemRegenin1 (SR1) and/or Compound 1001 were included in all experiments as controls to monitor assay performance. The plate was incubated at 37° C. for 7 days in static conditions (i.e. no shaking and no addition of media). Flow cytometry analysis was performed at the end of the 7-day expansion. Cells were stained with PE-labeled anti-human CD45RA (BD Biosciences) and APC-labeled anti-human CD34 (BD Biosciences) and analyzed using Intellicyt IQue cytometer equipped with ForeCyt software. Gates were drawn around the populations of interest to obtain cell numbers and relative proportions. The EC1.5 value, which is the concentration at which the compound/vehicle ratio is greater or equal to 1.5, was calculated by plotting the CD34+ cell number against concentrations (log-scale) in a 4-PL curve and fitting the curve using IDBS XLfit (set model 251) in Microsoft Excel.

Row | Compound | IC50 ([1]; Table 1) | EC1.5 [2] | IC50 ([1]; Table 2)
1 | Nc1c(C(=O)Nc2ccc(F)cc2)sc2nc3c(cc12)CCC3 [Compound 1002] | < 50 nM | – | –
2 | Nc1c(C(=O)Nc2ccccc2)sc2ncc(Br)cc12 [Compound 1003] | < 50 nM | – | –
3 | Nc1c(C(=O)Nc2ccccc2)sc2ncc(Cl)cc12 [Compound 1004] | < 50 nM | 100 to 1000 nM | –
4 | Cc1cc2c(N)c(C(=O)Nc3ccccc3)sc2nc1C [Compound 1005] | 50 to 500 nM | 100 to 1000 nM | –
5 | Nc1c(C(=O)Nc2cccnc2)sc2nc3c(cc12)CCC3 [Compound 1006] | 50 to 500 nM | 1000 to 5000 nM | –
6 | Nc1c(C(=O)Nc2ccccn2)sc2nc3c(cc12)CCC3 [Compound 1007] | < 50 nM | 100 to 1000 nM | –
7 | Nc1c(C(=O)Nc2ccccc2)sc2ncc(C(F)(F)F)cc12 [Compound 1008] | > 500 nM | 100 to 1000 nM | –
8 | Cc1cnc2sc(C(=O)Nc3ccccc3)c(N)c2c1 [Compound 1009] | < 50 nM | – | –
9 | Nc1c(C(=O)Nc2ccccc2)sc2ncc(F)cc12 [Compound 1010] | 50 to 500 nM | >5000 nM | –
10 | Nc1c(C(=O)Nc2ccncc2)sc2ncc(Cl)cc12 [Compound 1011] | < 50 nM | 1000 to 5000 nM | –
11 | Nc1c(C(=O)Nc2ccncc2)sc2ncc(Br)cc12 [Compound 1012] | 50 to 500 nM | – | –
12 | Nc1c(C(=O)Nc2ccncc2)sc2ncc(C(F)(F)F)cc12 [Compound 1013] | > 500 nM | 100 to 1000 nM | –
13 | Nc1c(C(=O)Nc2ccncc2)sc2nc3c(cc12)CCC3 [Compound 1014] | 50 to 500 nM | 1000 to 5000 nM | –
14 | Nc1c(C(=O)Nc2cccnc2)sc2ncc(C(F)(F)F)cc12 [Compound 1015] | > 500 nM | 100 to 1000 nM | –
15 | N#Cc1cnc2sc(C(=O)Nc3ccccc3)c(N)c2c1 [Compound 1016] | > 500 nM | 100 to 1000 nM | –
16 | Nc1c(C(=O)Nc2ccc(CCO)cc2)sc2ncc(C(F)(F)F)cc12 [Compound 1017] | 50 to 500 nM | 100 to 1000 nM | –
17 | COCc1ccc(NC(=O)c2sc3ncc(C(F)(F)F)cc3c2N)cc1 [Compound 1018] | < 50 nM | 1000 to 5000 nM | –
18 | Nc1c(C(=O)Nc2ccc(CO)cc2)sc2ncc(C(F)(F)F)cc12 [Compound 1019] | > 500 nM | >5000 nM | –
19 | C#Cc1cnc2sc(C(=O)Nc3ccncc3)c(N)c2c1 [Compound 1020] | 50 to 500 nM | – | –
20 | CCc1cnc2sc(C(=O)Nc3ccncc3)c(N)c2c1 [Compound 1021] | 50 to 500 nM | – | –
21 | Nc1c(C(=O)Nc2ccccn2)sc2ncc(C(F)(F)F)cc12 [Compound 1022] | < 50 nM | 100 to 1000 nM | –
22 | Cc1cnc(NC(=O)c2sc3ncc(C(F)(F)F)cc3c2N)s1 [Compound 1023] | 50 to 500 nM | >5000 nM | –
23 | CCc1ccc(NC(=O)c2sc3ncc(C(F)(F)F)cc3c2N)cc1 [Compound 1024] | < 50 nM | 100 to 1000 nM | –
24 | Nc1c(C(=O)Nc2ccccc2)sc2cnc(C(F)(F)F)cc12 [Compound 1025] | < 50 nM | 100 to 1000 nM | –
25 | Nc1c(C(=O)Nc2ccncc2)sc2cnc(C(F)(F)F)cc12 [Compound 1026] | 50 to 500 nM | 1000 to 5000 nM | –

Row | Compound | IC50 ([1]; Table 1) | EC1.5 [2] | IC50 ([1]; Table 2)
26 | Nc1c(C(=O)Nc2ccccc2)sc2ccc(C(F)(F)F)nc12 [Compound 1027] | < 50 nM | >5000 nM | –
27 | Nc1c(C(=O)Nc2ccncc2)sc2ccc(C(F)(F)F)nc12 [Compound 1028] | 50 to 500 nM | >5000 nM | –
28 | Nc1c(C(=O)Nc2ccc3ncsc3c2)sc2ncc(C(F)(F)F)cc12 [Compound 1029] | 50 to 500 nM | 100 to 1000 nM | –
29 | Nc1c(C(=O)Nc2ccc(-c3ccccc3)cc2)sc2ncc(C(F)(F)F)cc12 [Compound 1030] | 50 to 500 nM | >5000 nM | –
30 | Nc1c(C(=O)Nc2ccc(OCc3ccccc3)cc2)sc2ncc(C(F)(F)F)cc12 [Compound 1031] | 50 to 500 nM | 100 to 1000 nM | –
31 | CCOC(=O)Cc1ccc(NC(=O)c2sc3ncc(C(F)(F)F)cc3c2N)cc1 [Compound 1032] | 50 to 500 nM | 1000 to 5000 nM | –
32 | COc1ccc(NC(=O)c2sc3ncc(C(F)(F)F)cc3c2N)cc1-c1ccccc1 [Compound 1033] | 50 to 500 nM | 100 to 1000 nM | –
33 | Nc1c(C(=O)Nc2ccccc2)sc2ccc(C(F)(F)F)cc12 [Compound 1034] | < 50 nM | 100 to 1000 nM | –
34 | Nc1c(C(=O)Nc2ccncc2)sc2ccc(C(F)(F)F)cc12 [Compound 1035] | < 50 nM | 100 to 1000 nM | –
35 | Nc1c(C(=O)Nc2cccc(Br)c2)sc2ncc(C(F)(F)F)cc12 [Compound 1036] | < 50 nM | 100 to 1000 nM | –
36 | Nc1c(C(=O)Nc2ccc(Br)cc2)sc2ncc(C(F)(F)F)cc12 [Compound 1037] | < 50 nM | – | –
37 | N#CCc1ccc(NC(=O)c2sc3ncc(C(F)(F)F)cc3c2N)cc1 [Compound 1038] | < 50 nM | >5000 nM | –
38 | Nc1c(C(=O)Nc2ccc(Br)cc2)sc2cnc(C(F)(F)F)cc12 [Compound 1049] | 50 to 500 nM | – | –
39 | Nc1c(C(=O)Nc2ccc(-c3cccnc3)cc2)sc2ncc(C(F)(F)F)cc12 [Compound 1055] | 50 to 500 nM | – | –
40 | Nc1c(C(=O)Nc2ccc(F)cc2)sc2ncc(C(F)(F)F)cc12 [Compound 1060] | < 50 nM | – | –
41 | C=C(C)c1cnc2sc(C(=O)Nc3ccccc3)c(N)c2c1 [Compound 1090] | < 50 nM | – | –
42 | CC(C)c1cnc2sc(C(=O)Nc3ccccc3)c(N)c2c1 [Compound 1103] | < 50 nM | – | –
43 | C=CCc1cnc2sc(C(=O)Nc3ccccc3)c(N)c2c1 [Compound 1111] | 50 to 500 nM | – | –
44 | CCc1cnc2sc(C(=O)Nc3ccccc3)c(N)c2c1 [Compound 1112] | 50 to 500 nM | – | –
45 | Cc1ccc2sc(C(=O)Nc3ccccc3)c(N)c2c1 [Compound 1118] | < 50 nM | – | –
46 | Nc1c(C(=O)Nc2ccc(F)cn2)sc2ncc(C(F)(F)F)cc12 [Compound 1128] | – | 100 to 1000 nM | –
47 | CSc1ccc(NC(=O)c2sc3ncc(C(F)(F)F)cc3c2N)cc1 [Compound 1133] | < 50 nM | – | –
48 | CCCc1cnc2sc(C(=O)Nc3ccccc3)c(N)c2c1 [Compound 1134] | < 50 nM | – | –
49 | Nc1c(C(=O)Nc2ccccc2)oc2nc3c(cc12)CCC3 [Compound 1153] | – | – | 50 to 500 nM
